Reference: patent US12540120B2, “Herbicidal compounds” (SYNGENTA CROP PROTECTION AG, priority 2019, dated 2026)

Key:
Type in all cases: in vivo
[1] = test system: Amaranthus retoflexus (AMARE); assay: B1 Post-Emergence Efficacy—Test 1; settings: post-emergence application, 1000 g/ha, evaluated after 13 days
Experimental: (§1) B1 Post-Emergence Efficacy—Test 1 Seeds of a variety of test species are sown in standard soil in pots:—Solanum nigrum (SOLNI), Amaranthus retoflexus (AMARE), Setaria faberi (SETFA), Echinochloa crus-galli (ECHCG), Ipomoea hederacea (IPOHE), Lolium perenne (LOLPE). After 8 days cultivation (post-emergence) under controlled conditions in a glasshouse (at 24/16° C., day/night; 14 hours light; 65% humidity), the plants are sprayed with an aqueous spray solution derived from the formulation of the technical active ingredient in acetone/water (50:50) solution containing 0.5% Tween 20 (polyoxyethylene sorbitan monolaurate, CAS RN 9005-64-5). Compounds are applied at 1000 g/ha. The test plants are then grown in a glasshouse under controlled conditions in a glasshouse (at 24/16° C., day/night; 14 hours light; 65% humidity) and watered twice daily. After 13 days, the test is evaluated for the percentage damage caused to the plant. The biological activities are assessed on a five point scale (5=80-100%; 4=60-79%; 3=40-59%; 2=20-39%; 1=0-19%). A blank value in the table is indicative that the compound was not tested on that species.

[2] = test system: Echinochloa crus-galli (ECHCG); assay: B1 Post-Emergence Efficacy—Test 1; settings: post-emergence application, 1000 g/ha, evaluated after 13 days
Experimental: as §1

[3] = test system: Ipomoea hederacea (IPOHE); assay: B1 Post-Emergence Efficacy—Test 1; settings: post-emergence application, 1000 g/ha, evaluated after 13 days
Experimental: as §1

Lolium perenne (LOLPE) [4] = assay: B1 Post-Emergence Efficacy—Test 1; settings: post-emergence application, 1000 g/ha, evaluated after 13 days
Experimental: as §1

Setaria faberi (SETFA) [5] = assay: B1 Post-Emergence Efficacy—Test 1; settings: post-emergence application, 1000 g/ha, evaluated after 13 days
Experimental: as §1

Solanum nigrum (SOLNI) [6] = assay: B1 Post-Emergence Efficacy—Test 1; settings: post-emergence application, 1000 g/ha, evaluated after 13 days
Experimental: as §1

[7] = test system: Amaranthus retoflexus (AMARE); assay: B2 Post-Emergence Efficacy—Test 2; settings: post-emergence application, 250 g/ha, evaluated after 13 days (Test 2)
Method in brief: (§2)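 Pot-grown plants, sown in standard soil and raised 8 days in a glasshouse (24/16 °C day/night, 14 h light, 65% humidity), were sprayed post-emergence at 250 g/ha from acetone/water (50:50) with 0.5% Tween 20. Percentage damage was scored 13 days later on a five-point scale (5=80-100%; 1=0-19%).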

[8] = test system: Echinochloa crus-galli (ECHCG); assay: B2 Post-Emergence Efficacy—Test 2; settings: post-emergence application, 250 g/ha, evaluated after 13 days (Test 2)
Method in brief: as §2

[9] = test system: Ipomoea hederacea (IPOHE); assay: B2 Post-Emergence Efficacy—Test 2; settings: post-emergence application, 250 g/ha, evaluated after 13 days (Test 2)
Method in brief: as §2

Lolium perenne (LOLPE) [10] = assay: B2 Post-Emergence Efficacy—Test 2; settings: post-emergence application, 250 g/ha, evaluated after 13 days (Test 2)
Method in brief: as §2

Setaria faberi (SETFA) [11] = assay: B2 Post-Emergence Efficacy—Test 2; settings: post-emergence application, 250 g/ha, evaluated after 13 days (Test 2)
Method in brief: as §2

Solanum nigrum (SOLNI) [12] = assay: B2 Post-Emergence Efficacy—Test 2; settings: post-emergence application, 250 g/ha, evaluated after 13 days (Test 2)
Method in brief: as §2

[13] = test system: Amaranthus retoflexus (AMARE); assay: B4 Pre-Emergence Efficacy—Test 1; settings: pre-emergence application, 1000 g/ha, evaluated after 13 days
Experimental: (§3) B4 Pre-Emergence Efficacy—Test 1 Seeds of a variety of test species were sown in standard soil in pots: Solanum nigrum (SOLNI), Amaranthus retoflexus (AMARE), Setaria faberi (SETFA), Echinochloa crus-galli (ECHCG), Ipomoea hederacea (IPOHE), Lolium perenne (LOLPE). After cultivation for one day (pre-emergence) under controlled conditions in a glasshouse (at 24/16° C., day/night; 14 hours light; 65% humidity), the plants were sprayed with an aqueous spray solution derived from the formulation of the technical active ingredient in acetone/water (50:50) solution containing 0.5% Tween 20 (polyoxyethelyene sorbitan monolaurate, CAS RN 9005-64-5). Compounds are applied at 1000 g/ha. The test plants were then grown in a glasshouse under controlled conditions (at 24/16° C., day/night; 14 hours light; 65% humidity) and watered twice daily. After 13 days, the test is evaluated for the percentage damage caused to the plant. The biological activities are assessed on a five point scale (5=80-100%; 4=60-79%; 3=40-59%; 2=20-39%; 1=0-19%). A blank value in the table is indicative that the compound was not tested on that species.

[14] = test system: Echinochloa crus-galli (ECHCG); assay: B4 Pre-Emergence Efficacy—Test 1; settings: pre-emergence application, 1000 g/ha, evaluated after 13 days
Experimental: as §3

[15] = test system: Ipomoea hederacea (IPOHE); assay: B4 Pre-Emergence Efficacy—Test 1; settings: pre-emergence application, 1000 g/ha, evaluated after 13 days
Experimental: as §3

Lolium perenne (LOLPE) [16] = assay: B4 Pre-Emergence Efficacy—Test 1; settings: pre-emergence application, 1000 g/ha, evaluated after 13 days
Experimental: as §3

Setaria faberi (SETFA) [17] = assay: B4 Pre-Emergence Efficacy—Test 1; settings: pre-emergence application, 1000 g/ha, evaluated after 13 days
Experimental: as §3

Solanum nigrum (SOLNI) [18] = assay: B4 Pre-Emergence Efficacy—Test 1; settings: pre-emergence application, 1000 g/ha, evaluated after 13 days
Experimental: as §3

[19] = test system: Amaranthus retoflexus (AMARE); assay: B5 Pre-Emergence Efficacy—Test 2; settings: 250 g/ha, evaluated after 13 days
Method in brief: (§4)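 Compounds are applied pre-emergence at 250 g/ha, one day after sowing, in an aqueous acetone/water spray carrying 0.5% Tween 20. Damage is assessed 13 days later and scored from 1 (0-19%) to 5 (80-100%).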

Solanum nigrum (SOLNI) [20] = assay: B5 Pre-Emergence Efficacy—Test 2; settings: 250 g/ha, evaluated after 13 days
Method in brief: as §4

[21] = test system: Echinochloa crus-galli (ECHCG); assay: B5 Pre-Emergence Efficacy—Test 2; design: key: 5-point scale: 5=80-100%, 4=60-79%, 3=40-59%, 2=20-39%, 1=0-19% damage; settings: 250 g/ha, evaluated after 13 days
Method in brief: as §4

[22] = test system: Ipomoea hederacea (IPOHE); assay: B5 Pre-Emergence Efficacy—Test 2; design: key: 5-point scale: 5=80-100%, 4=60-79%, 3=40-59%, 2=20-39%, 1=0-19% damage; settings: 250 g/ha, evaluated after 13 days
Method in brief: as §4

Lolium perenne (LOLPE) [23] = assay: B5 Pre-Emergence Efficacy—Test 2; design: key: 5-point scale: 5=80-100%, 4=60-79%, 3=40-59%, 2=20-39%, 1=0-19% damage; settings: 250 g/ha, evaluated after 13 days
Method in brief: as §4

Setaria faberi (SETFA) [24] = assay: B5 Pre-Emergence Efficacy—Test 2; design: key: 5-point scale: 5=80-100%, 4=60-79%, 3=40-59%, 2=20-39%, 1=0-19% damage; settings: 250 g/ha, evaluated after 13 days
Method in brief: as §4

Cc1nn(C)c(=O)c(-c2c(F)ccc(Cl)c2CCc2ccc(C#N)cc2)c1O [Compound A-1.036, 4-[2-[6-chloro-3-fluoro-2-(5-hydroxy-2,6-dimethyl-3-oxo-pyridazin-4-yl)phenyl]ethyl]benzonitrile]
5 (5=80-100%): percentage damage caused to the plant, five point scale, AMARE [1] | percentage damage caused to the plant, five point scale, ECHCG [2] | percentage damage caused to the plant, five point scale, IPOHE [3] | percentage damage caused to the plant, five point scale, LOLPE (Lolium perenne (LOLPE) [4]) | percentage damage caused to the plant, five point scale, SETFA (Setaria faberi (SETFA) [5]) | percentage damage caused to the plant, five point scale, SOLNI (Solanum nigrum (SOLNI) [6]) | percentage damage caused to the plant, five point scale, AMARE [7] | percentage damage caused to the plant, five point scale, ECHCG [8] | percentage damage caused to the plant, five point scale, IPOHE [9] | percentage damage caused to the plant, five point scale, LOLPE (Lolium perenne (LOLPE) [10]) | percentage damage caused to the plant, five point scale, SETFA (Setaria faberi (SETFA) [11]) | percentage damage caused to the plant, five point scale, SOLNI (Solanum nigrum (SOLNI) [12]) | percentage damage caused to the plant, five point scale, AMARE [13] | percentage damage caused to the plant, five point scale, ECHCG [14] | percentage damage caused to the plant, five point scale, IPOHE [15] | percentage damage caused to the plant, five point scale, LOLPE (Lolium perenne (LOLPE) [16]) | percentage damage caused to the plant, five point scale, SETFA (Setaria faberi (SETFA) [17]) | percentage damage caused to the plant, five point scale, SOLNI (Solanum nigrum (SOLNI) [18]) | Control of weed species after pre-emergence application, AMARE (percentage damage, five point scale) [19] | Control of weed species after pre-emergence application, SOLNI (percentage damage, five point scale) (Solanum nigrum (SOLNI) [20]) | Control of weed species after pre-emergence application, ECHCG (percentage damage, five point scale) [21] | Control of weed species after pre-emergence application, IPOHE (percentage damage, five point scale) [22] | Control of weed species after pre-emergence application, LOLPE (percentage damage, five point scale) (Lolium perenne (LOLPE) [23]) | Control of weed species after pre-emergence application, SETFA (percentage damage, five point scale) (Setaria faberi (SETFA) [24])
